According to US8163748B2, “s-Triazine compounds, pharmaceutical compositions and method of using the same” (New York University, priority 2007, dated 2012):
Values after ≈ are worked out from the molar mass of the structure shown.

Key:
[1] = system: Bacillus subtilis (ATCC 6633); assay: broth microdilution antibacterial testing; format: cell-based; conditions: for MIC50: Bacillus subtilis, ATCC6633
calcein dye leakage = format: biochemical; conditions: ampicillin 70 μM
Text: FIG. 1 graphically depicts the results of the measurement of the ability of a triazine compound of the invention to induce leakage of calcein, entrapped within the interior of large unilamellar vesicles of model membrane POPG. The extent of leakage of encapsulated calcein was detected by its fluorescence at 515 nm, with 100% leakage calibrated by addition of 0.2% Triton X-100.
The method of preparation of dye-encapsulated vesicles has been reported in detail. Lasch, V.; Weissig, M. Brandl in Liposomes: a Practical Approach Eds.: Taylor, K. M. G.; Craig, D.Q.M. Oxford University Press, Oxford, 2003; pp. 10-12. The results are graphically presented in FIG. 1, which presents the results of calcein leakage induced by 1% Triton, C2 (50 μM), h9 (90 μM) and ampicillin (70 μM). The fraction of leakage was calculated from the fluorescence intensity at 515 nm, with 100% leakage calibrated by addition of 1% Triton X-100.

SMILES	MIC50 [1] [µM]	also measured
CCCCN(CCCC)CCCNc1nc(NC2CCC2)nc(NC23CC4CC(CC(C4)C2)C3)n1 [A2 (Library 5)]	7.9 (≈ 3.82 µg/mL)	
CCCCN(CCCC)CCCNc1nc(NC2CCCCCCCCCCC2)nc(NC23CC4CC(CC(C4)C2)C3)n1 [A5 (Library 5)]	15.9 (≈ 9.48 µg/mL)	activity decrease comparing to ring size 7 or 8 compounds ([1]; library 5, ring size 12, B. subtilis): ~8 fold
CCCCN(CCCC)CCCNc1nc(NC2CC3CCC2C3)nc(NC23CC4CC(CC(C4)C2)C3)n1 (stereo not drawn) [A6 (Library 5)]	7.6 (≈ 3.98 µg/mL)	
CCCCN(CCCC)CCCNc1nc(NC23CC4CC(CC(C4)C2)C3)nc(NC23CC4CC(CC(C4)C2)C3)n1 [A8 (Library 5)]	39 (≈ 22 µg/mL)	
CCCCN(CCCC)CCCNc1nc(NC23CC4CC(CC(C4)C2)C3)nc(N(CCC)CC2CC2)n1 [A10 (Library 5)]	5 (≈ 2.63 µg/mL)	
CCN(CC)CCCNc1nc(NCc2ccc3c(c2)OCO3)nc(NC23CC4CC(CC(C4)C2)C3)n1 [C4 (Library 5)]	3.5 (≈ 1.78 µg/mL)	
CCCCN(CCCC)CCCNc1nc(NC2CC2)nc(NC23CC4CC(CC(C4)C2)C3)n1 [Compound A1]	16.4 (≈ 7.7 µg/mL)	
CCCCN(CCCC)CCCNc1nc(NC23CC4CC(CC(C4)C2)C3)nc(N(CCCC)CCCC)n1 [Compound A9]	4.4 (≈ 2.38 µg/mL)	
CCN(CC)CCCNc1nc(NCc2ccccc2)nc(NC23CC4CC(CC(C4)C2)C3)n1 [Compound C1]	10.6 (≈ 4.91 µg/mL)	
CC1(C)S[C@@H]2[C@H](NC(=O)[C@H](N)c3ccccc3)C(=O)N2[C@H]1C(=O)O [ampicillin]		calcein dye leakage (in words) (calcein dye leakage): neither ampicillin nor compound C2 caused dye leakage
CN(C)CCNc1nc(NC2CCCCCC2)nc(NC23CC4CC(CC(C4)C2)C3)n1 [b9 (Library 5)]	7 (≈ 2.99 µg/mL)	
CCN(CC)CCNc1nc(NC2CCCCCC2)nc(NC23CC4CC(CC(C4)C2)C3)n1 [c9 (Library 5)]	5.6 (≈ 2.55 µg/mL)	
CN(C)CCCNc1nc(NC2CCCCCC2)nc(NC23CC4CC(CC(C4)C2)C3)n1 [d9 (Library 5)]	5.7 (≈ 2.52 µg/mL)	
NCCNc1nc(NC2CCCCCC2)nc(NC23CC4CC(CC(C4)C2)C3)n1 [e9 (Library 5)]	5.9 (≈ 2.36 µg/mL)	
NCCCNc1nc(NC2CCCCCC2)nc(NC23CC4CC(CC(C4)C2)C3)n1 [f9 (Library 5)]	4.7 (≈ 1.94 µg/mL)	
CN1CCCC1CCNc1nc(NC2CCCCCC2)nc(NC23CC4CC(CC(C4)C2)C3)n1 (stereo not drawn) [g9 (Library 5)]	5.9 (≈ 2.76 µg/mL)	
CN(C)c1nc(NC2CCCCCC2)nc(NC23CC4CC(CC(C4)C2)C3)n1 [h9 (Library 5)]		antimicrobial activity (in words) ([1]; library 5 compound used as control in dye leakage): little antimicrobial activity
